“And” between values parts separate entries of the source, which are not always exact repeats. Identical values can stand only once. Like-named read-outs stand apart in the source and are kept apart here.
Columns and labels:
eyelids, lips, skin = assay: Plumping or firming of eyelids, lips and skin, clinical and photographic evaluation; format: in vivo, human
Description: Standard photographs were taken before and after topical applications of test formulations. Plumping or firming effect was determined by clinical as well as photographic evaluation. It was discovered that hydroxycarboxylic acids, N-acyl-aldosamines, N-acylamino acids and related compounds had substantial effect on plumping or firming the eyelids. Aside from clinical as well as photographic evaluation, eyelids plumping or firming also was determined from the disappearance of certain skin lines on the eyelids skin. When eyelids skin was plumping up, the eyelids skin firmed up or pulled up, and the skin lines became less apparent or disappeared. Therefore, when the skin lines on the eyelids disappeared after topical application of a test formulation, the test substance was judged to have plumping or firming effect on the eyelids. It also was discovered that hydroxycarboxylic acids, N-acyl-aldosamines, N-acylamino acids and related compounds on topical application had firming or plumping up effects on the eyelids skin. […] Increased fullness, volume, contour or the effect of enlarging, expanding, augmenting, enhancing, firming, pouting, plumping or elongating after topical application was measured or determined by clinical as well as photographic evaluations. One of the measurements for breast enlargement or augmentation was by the size of brassiere cup. After topical application of the active ingredient, the subject would feel fullness or greater tightness of their treated breast with increased volume and contour, and there was a need to change and increase the size of the brassiere cup. Thus the enlargement or augmentation of the breast was determined by clinical as well as the increased size of brassiere cup. The plumping, pouting or firming effects on lips and eyelids by topical application of an hydroxycarboxylic acid, N-acyl-aldosamine, N-acylamino acid or related compound was determined by clinical as well as photographic evaluation. The elongation or expanding effect of penis was determined by direct measurement of penis before and after once or twice daily topical application of an hydroxycarboxylic acid, N-acyl-aldosamine, N-acylamino acid or related compound. • (C) Antioxidants

forearm skin = assay: Forearm skin thickness measured by micrometer calipers after topical application; format: in vivo, human; details: for % Increase Over (summary of increased skin thickness): 10-35% concentration twice daily on forearm skin, range over 2-13 subjects
From the text: Measuring the increase in thickness of the skin was accomplished in accordance with the following procedures. The increased plumpness or skin thickness by topical application of active ingredients of the embodiments is mainly due to increased biosynthesis of dermal components in the skin. The three most important dermal components are glycosaminoglycans (GAGs), collagens and elastic fibers. The increased skin thickness caused by increased biosynthesis of dermal components can be distinguished from that by water retention or edema formation. In the former case, the skin remains thickened for weeks and months after termination of topical application. In the latter case, the increased skin thickness returns to the original skin thickness within days after termination of topical application. • (1) Forearm Skin
The most convenient body area for testing skin thickness is the forearm skin. For example, a test substance in a formulation was topically applied once or twice daily to left or right forearm for 3 to 6 months and the other forearm was untreated or treated with a vehicle control. The skin plumpness or thickness was measured by micrometer calipers as follows. The skin was grasped with a 2×6 cm hinge plate, the internal faces of the hinge were coated with soft cloth to prevent slippage, and manually squeezed to a threshold point when the subject felt tight. Combined skin thickness of two whole-skin layers including thickness of the two hinge leaves was measured with micrometer calipers. Thickness of the two hinge leaves was subtracted to determine the actual thickness of two whole-skin layers. Triplicate measurements on treated site were done and an average number was used for calculation of the skin thickness. […]
Hydroxycarboxylic acids, N-acyl-aldosamines, N-acylamino acids and related compounds at various concentrations were topically applied to forearms of volunteer subjects or patients. As shown in Tables 1-7, the skin plumpness or thickness was increased substantially by the compounds of the present invention. The increased skin thickness was believed to be due to increased biosynthesis of GAGs, collagen and elastic fibers. […]. From the above test results, hydroxycarboxylic acids, N-acyl-aldosamines, N-acylamino acids and related compounds used alone or in combination should be beneficial to plump and pout lips, enhance and firm eyelids, enlarge and augment breasts, elongate and expand penis.
In one of the studies, skin thickness was measured by micrometer calipers as follows: The skin was grasped with a 2×6 cm metal hinge; the internal faces of which were coated with emery cloth to prevent slippage, and manually squeezed to threshold subject discomfort. Combined thickness of two whole-skin layers including thickness of the two hinge leaves was measured with micrometer calipers. Thickness of the two hinge leaves was subtracted to determine the actual thickness of two whole-skin layers. Triplicate measurements on treated sites were conducted and an average number was used for calculation of the skin thickness.

[1] = Antioxidant screen tests: air oxidation of anthralin and hydroquinone
From the text: (§1) An antioxidant can be defined as a substance capable of preventing or inhibiting oxidation. The antioxidant property can be readily determined by using any one of the following test methods: prevention or retardation of air oxidation of (a) anthralin, (b) hydroquinone, or (c) banana peel. A freshly prepared anthralin solution or cream is bright yellow, and an air oxidized one is brownish or black. A hydroquinone solution or cream is colorless or white color, and an air oxidized one is brownish or black. A freshly peeled banana peel is light yellow in color and an oxidized one ranges in color from tan, dark tan, brown to brownish black.

[2] = Banana peel air oxidation test (antioxidant property); details: 0.1 M, 5 ml, room temperature
From the text: as §1

penis = assay: Direct augmentation of penis, penile circumference by tape measure; format: in vivo, human; details: 20% solution two to three times daily for six weeks, person
Description: The plumping, pouting or firming effects on lips and eyelids by topical application of an hydroxycarboxylic acid, N-acyl-aldosamine, N-acylamino acid or related compound was determined by clinical as well as photographic evaluation. The elongation or expanding effect of penis was determined by direct measurement of penis before and after once or twice daily topical application of an hydroxycarboxylic acid, N-acyl-aldosamine, N-acylamino acid or related compound. • (C) Antioxidants
One test on direct augmentation of penis was carried out as follows. Lactobionic acid 20% solution was prepared by dissolving lactobionic acid 20 g in water 50 ml and propylene glycol 30 ml. A subject, volunteered to test an active ingredient of the present invention to enhance penile enlargement. Each morning for one week prior to treatment penile circumference was measured. Measurements were made with a cloth tailor's tape measure. Penile circumference of the glans region, which included the covering foreskin, ranged from 9.5 cm to 10.5 cm. The above lactobionic acid 20% solution was topically applied two to three times daily on the glans penis including the covering foreskin region for six weeks. Morning measurements were again made daily for one week after treatment was stopped. Penile circumference ranged from 11.5 cm to 13 cm after six weeks of topical treatment with 20% lactobionic acid solution.

breasts = assay: Breast enlargement after topical application, clinical evaluation and brassiere cup; format: in vivo, human
Description: A test formulation containing a hydroxycarboxylic acid, N-acyl-aldosamine, N-acylamino acid or related compound was topically applied once or twice daily to skin or mucus membrane organs or sites such as lips, eyelids, breasts and penis for one to six months. Increased fullness, volume, contour or the effect of enlarging, expanding, augmenting, enhancing, firming, pouting, plumping or elongating after topical application was measured or determined by clinical as well as photographic evaluations. One of the measurements for breast enlargement or augmentation was by the size of brassiere cup. After topical application of the active ingredient, the subject would feel fullness or greater tightness of their treated breast with increased volume and contour, and there was a need to change and increase the size of the brassiere cup. Thus the enlargement or augmentation of the breast was determined by clinical as well as the increased size of brassiere cup.
A subject, applied topically twice daily gluconolactone 15% lotion to their right breast for 3 months. […] At this time, they began treating both breasts. […]

[3] = 14% cream twice daily, person, after two months
[4] = anthralin, hydroquinone or banana peel air oxidation

O=C(O)C(O)CO (stereo not drawn) [glyceric acid, 2,3-dihydroxypropanoic acid]
lips plumpness (eyelids, lips, skin; [3]): more plump
plumping of skin (eyelids, lips, skin; [3]): plumping of skin was detectable
skin of the upper arms appearance (eyelids, lips, skin; [3]): diminished crepe paper appearance
upper eyelids droop and fullness (eyelids, lips, skin; [3]): diminished droop and enhanced fullness

CCC(=O)N[C@H]1C(O)O[C@H](CO)[C@@H](O)[C@@H]1O (stereo partly drawn) [N-Propanoyl-D-glucosamine]
appearance of treated forearm skin when lifted (forearm skin; 10% solution twice daily, at the end of treatment (6 to 9 weeks), untreated forearm still loose and relatively thin): more firm, smooth and plump when lifted
increase in skin thickness of treated forearm (forearm skin; 10% solution twice daily, person one, after 4 weeks, untreated forearm no change): 8%
increase in skin thickness of treated forearm (forearm skin; 10% solution twice daily, person one, after 6 weeks, untreated forearm no change): 23%
increase in skin thickness of treated forearm (forearm skin; 10% solution twice daily, person one, after 9 weeks, untreated forearm no change): 28%
increase in skin thickness of treated forearm (forearm skin; 10% solution twice daily, person two, after 4 weeks, untreated forearm no change): 13%
increase in skin thickness of treated forearm (forearm skin; 10% solution twice daily, person two, after 6 weeks): 27%
increase in skin thickness of treated forearm (forearm skin; 10% solution twice daily, person, after 5 weeks, untreated forearm no change): 19%
increase in skin thickness of treated forearm (forearm skin; 10% solution twice daily, person, after 8 weeks): 33%

CC(=O)N[C@@H](CS)C(=O)O [N-Acetyl-L-cysteine]
antioxidant properties based on the screen tests [1, 4]: antioxidant substances

CC(C)(O)C(=O)O [Methyllactic Acid, 2-methyl-2-hydroxypropanoic acid]
% Increase Over (summary of increased skin thickness) (forearm skin): 14-20%

O=C(O)[C@H](O)[C@@H](O)[C@H](O[C@@H]1O[C@H](CO)[C@H](O)[C@H](O)[C@H]1O)[C@H](O)CO [Lactobionic Acid, lactobionic acid]
color of fresh banana peels ([2]; after 72 hours, control in water dark tan at 24 to 72 hours): changed in color to tan
color of fresh banana peels ([2]; period of 24 hours, control in water tan within 6 hours): remained white-yellowish
% Increase Over (summary of increased skin thickness) (forearm skin): 5-58%
% Increase Over Control (%) (skin thickness) (forearm skin; Conc. 8%, twice daily on forearm skin, 3 months, control = opposite forearm, subject): 26%
% Increase Over Control (%) (skin thickness) (forearm skin; Conc. 20%, twice daily on forearm skin, 4 months, control = opposite forearm, subject): 10%
antioxidant property by anthralin and hydroquinone test methods [1]: moderate antioxidant
glans penile augmentation and foreskin thickness (in words) (penis): glans penile augmentation had occurred, as well as increased thickness of foreskin

O=C(O)c1ccccc1O [Salicylic Acid, 2-hydroxybenzoic acid, reference compound]
effect on skin plumpness or thickness (in words) (forearm skin; topical application on forearm skin): decreased instead of increasing skin thickness

O=C1O[C@H]([C@H](O)CO)C(O)=C1O [isoascorbic acid, D-erythro-hex-2-enonic acidr-lactone]
antioxidant properties based on the screen tests [1, 4]: antioxidant substances

CC(O)C(=O)O (racemic) [DL-Lactic Acid, 2-hydroxypropanoic acid]
% Increase Over (summary of increased skin thickness) (forearm skin): 17-42%

O=C(O)CO [Glycolic Acid, 2-hydroxyethanoic acid]
% Increase Over (summary of increased skin thickness) (forearm skin): 11-43%

O=C(O)C(O)c1ccccc1 (racemic) [DL-Mandelic Acid, 2-henyl-2-hydroxyethanoic acid]
% Increase Over (summary of increased skin thickness) (forearm skin): 22-27%
% Increase Over Control (skin thickness) (forearm skin; 30% solution, twice daily on forearm skin, 4 months, control = opposite forearm, one subject): 22% and 27%

O=C(O)CC(O)C(=O)O (stereo not drawn) [malic acid, 2-hydroxybutane-1,4-dioic acid]
antioxidant properties based on the screen tests [1, 4]: antioxidant substances

CC1(C)COC(=O)C1O (stereo not drawn) [pantolactone]
antioxidant properties based on the screen tests [1, 4]: antioxidant substances

O=C1O[C@H](CO)[C@@H](O)[C@H](O)[C@H]1O [D-Gluconolactone]
size of treated right breast (breasts; 15% lotion twice daily, person, after 6 weeks, untreated left breast no change): noticeable increase in the size of their right breast
plumpness and firmness of treated right breast compared to left breast (breasts; 15% lotion twice daily, person, at the end of 3 months): increased in plumpness and firmness
plumpness and firmness of both breasts (breasts; 15% lotion, both breasts treated, at the end of another 3 months (6 month treatment period)): substantially increased in plumpness and firmness
% Increase Over (summary of increased skin thickness) (forearm skin): 7-19%

O=C(O)CC(C(=O)O)C(O)C(=O)O (stereo not drawn) [isocitric acid]
antioxidant properties based on the screen tests [1]: antioxidant substances

O=C(O)[C@H](O)[C@@H](O)[C@H](O[C@@H]1O[C@H](CO)[C@H](O)[C@H](O)[C@H]1O)[C@H](O)CO [Maltobionic acid, maltobionic acid]
skin fullness and plumping (eyelids, lips, skin; 20% solution twice daily applied prior to continued glyceric acid 14% cream, same subject, after five weeks): marked enhancement of skin fullness and plumping

CC(=O)NC1CCSC1=O (racemic) [N-Acetyl-DL-homocysteine Thiolactone]
% Increase Over Control (%) (skin thickness) (forearm skin; 5% lotion, twice daily on forearm skin, 3 weeks, control = opposite forearm, one subject): 13% and 65%

From patent US20050171194A1, “Enlargement of mucocutaneous or cutaneous organs and sites with topical compositions” (priority 2003, published 2005)
